These results are taken from ChEMBL document CHEMBL2057076, “C-6 aryl substituted 4-quinolone-3-carboxylic acids as inhibitors of hepatitis C virus” (Bioorg Med Chem, 2012).

Active and inactive are the calls of the source. The calls are words filed in the database; no cut-off is given here.

In series [1] the test system is Hepatitis C virus. The series is described as follows: Antiviral activity at Hepatitis C virus genotype 1b infected in human HuH7 cells assessed as inhibition of viral replication at 10 uM after 3 days by renilla luciferase reporter gene assay. Type of series: functional, Hepacivirus hominis. The settings on record: Huh-7, 72 h. In general terms: Reporter assays use an easily measured gene product as a stand-in for the process of interest.

The nature of series [2]: Cytotoxicity against human HuH7 cells assessed as cell viability at 10 uM after 3 days by CellTiter Glo assay. The series is classed as cell-based, Huh-7. The settings on record: read-out: Activity. Background: Cellular ATP, detected with luciferase, serves as a proxy for viable cell number.
Series [3] has as its system Hepatitis C virus. Kind of series: Antiviral activity at Hepatitis C virus genotype 1b infected in human HuH7 cells assessed as inhibition of viral replication after 3 days by renilla luciferase reporter gene assay. Type of series: functional, organism-based, Hepacivirus hominis. The settings on record: Huh-7, 72 h.
A short description of series [4]: Cytotoxicity against human HuH7 cells assessed as cell viability after 3 days by CellTiter Glo assay. The series is classed as cell-based, Huh-7.
Series [5] can be described thus: Therapeutic index, ratio of CC50 for human HuH7 cells to EC50 for Hepatitis C virus genotype 1b. Type of series: cell-based, Huh-7. The settings on record: read-out: Ratio CC50/EC50.
The subject of series [6] is Hepacivirus hominis. Kind of series: Inhibition of Hepatitis C virus NS5B delta 55 assessed as [3H][…] incorporation on a poly(A) template at 10 uM after 3 hrs by scintillation proximity assay. Background: SPA uses beads or plates that emit light when radiolabelled molecules are held near them.
For series [7], the system named is Hepacivirus hominis. The series is described as follows: Inhibition of Hepatitis C virus NS5B delta 55 assessed as [3H][…] incorporation on a poly(A) template at 50 uM after 3 hrs by scintillation proximity assay.
In series [8] the test system is Hepatitis C virus. Kind of series: Antiviral activity at Hepatitis C virus genotype 1b infected in human HuH7 cells assessed as inhibition of viral replication at 0.5 uM after 3 days by renilla luciferase reporter gene assay. Type of series: functional, Hepacivirus hominis. The settings on record: Huh-7, 72 h.
A short description of series [9]: Cytotoxicity against human HuH7 cells assessed as cell viability at 0.5 uM after 3 days by CellTiter Glo assay. The series is classed as cell-based, Huh-7. The conditions noted are these: read-out: Activity.
Series [10] concerns Hepatitis C virus. The series is described as follows: Antiviral activity at Hepatitis C virus genotype 1b infected in human HuH7 cells assessed as inhibition of viral replication at 0.5 uM after 3 days by quantitative RT-PCR analysis. The conditions noted are these: Huh-7, 72 h. The series is classed as functional, Hepacivirus hominis.
In series [11] the test system is Hepatitis C virus. Kind of series: Antiviral activity at Hepatitis C virus genotype 1b infected in human HuH7 cells assessed as inhibition of viral replication at 10 uM after 3 days by quantitative RT-PCR analysis. The conditions noted are these: Huh-7, 72 h. The series is classed as functional, Hepacivirus hominis.
For series [12], the system named is Hepacivirus hominis. The series is described as follows: Inhibition of Hepatitis C virus NS5B delta 55 assessed as [3H][…] incorporation on a poly(A) template at 1 uM after 3 hrs by scintillation proximity assay.

`O=C(O)c1cn(CCO)c2cc(-c3cc4ccccc4o3)ccc2c1=O`: the inhibition (as a rule, the drop in the measured response relative to a control, in per cent) at 10 µM with Hepatitis C virus [1] was determined as 14%. Also, the viability at 72 h, 10 µM in series [2] came out at 94%.
The matching figures for `O=C(O)c1cn(CCCO)c2cc(-c3cccs3)ccc2c1=O`: 12% and 97%.
The matching figures for `O=C(O)c1cn(CCO)c2ccc(-c3ccco3)cc2c1=O`: 20% and 100%.
Regarding `O=C(O)c1cn(CCO)c2ccc(-c3cc4ccccc4s3)cc2c1=O`, in the series with Hepatitis C virus [1], the inhibition at 10 µM came to 58%. Further, the viability at 72 h, 10 µM in series [2] was 100%. The EC50 – broadly, the concentration at which the effect is half-maximal – in the series on Hepatitis C virus [3] was determined as 5.9 µM. Further, the CC50 (in general, the concentration that lowers cell viability or growth by half) at 72 h in [4] stood at 15 µM. Moreover, the selectivity ratio in [5] was 2.5. The inhibition entry in the series with Hepacivirus hominis [6] and in the series with Hepacivirus hominis [7] was “Active” throughout.
As to `O=C(O)c1cn(Cc2ccccc2)c2ccc(I)cc2c1=O`, the inhibition at 10 µM in the series with Hepatitis C virus [1] worked out at 0%. The viability at 72 h, 10 µM in series [2] was found to be 99%.
The matching figures for `COc1ccc(-c2ccc3c(c2)c(=O)c(C(=O)O)cn3CCO)cc1`: 0% and 95%.
The corresponding values for `O=C(O)c1c[nH]c2ccc(-c3cccs3)cc2c1=O` are 0% and 100%.
The matching figures for `CCCn1cc(C(=O)O)c(=O)c2cc(-c3cc4ccccc4o3)ccc21`: 4% and 91%.
Regarding `O=C(O)c1cn(CCCO)c2ccc(-c3cc4ccccc4o3)cc2c1=O`, in the series with Hepatitis C virus [1], the inhibition at 10 µM was determined as 44%. The viability at 72 h, 10 µM in series [2] was determined as 100%. Besides, the EC50 with Hepatitis C virus [3] worked out at 23 µM. Moreover, the CC50 at 72 h in [4] came to 25 µM. Further, the selectivity ratio in series [5] came to 1.1.
With `NC(=O)c1ncn([C@@H]2O[C@H](CO)[C@@H](O)[C@H]2O)n1` [RIBAVIRIN], the inhibition at 10 µM in the series on Hepatitis C virus [1] came to 44%. The viability at 72 h, 10 µM in [2] was found to be 92%.
The matching figures for `O=C(O)c1cnc2ccc(I)cc2c1O`: 22% and 100%.
The corresponding values for `O=C(O)c1c[nH]c2ccc(-c3ccco3)cc2c1=O` are 0% and 100%.
The matching figures for `O=C(O)c1cn(CCO)c2ccc(-c3ccoc3)cc2c1=O`: 0% and 100%.
Consider `O=C(O)c1cn(CCO)c2ccc(I)cc2c1=O`, for which the inhibition at 10 µM in the series with Hepatitis C virus [1] worked out at 21%. Further, in series [2], the viability at 72 h, 10 µM came out at 100%.
In the case of `C[C@@]1(O)[C@H](O)[C@@H](CO)O[C@H]1n1cnc2c(N)ncnc21`, the inhibition at 0.5 µM in the series on Hepatitis C virus [8] was 98%; in the series on Hepatitis C virus [10], 95%. Further, the viability at 72 h, 0.5 µM in series [9] worked out at 87%.
Take `O=C(O)c1cn(CCO)c2ccc(-c3cc4ccccc4o3)cc2c1=O`: the inhibition at 10 µM with Hepatitis C virus [1] worked out at 63%; in the series on Hepatitis C virus [11], 70%. Besides, the viability at 72 h, 10 µM in series [2] stood at 100%. Moreover, the EC50 in the series on Hepatitis C virus [3] is 5.8 µM. Moreover, the CC50 at 72 h in [4] was determined as 34 µM. The selectivity ratio in series [5] was 5.9. Also, the inhibition result with Hepacivirus hominis [6] and with Hepacivirus hominis [7] was “inactive” each time.
Take `CC(=O)c1ccc(-c2ccc3c(c2)c(=O)c(C(=O)O)cn3CCO)s1`: the inhibition at 10 µM in the series on Hepatitis C virus [1] came out at 0%. Moreover, the viability at 72 h, 10 µM in series [2] stood at 100%.
As for `O=C(O)c1cn(CCO)c2cc(-c3ccco3)ccc2c1=O`, in the series with Hepatitis C virus [1], the inhibition at 10 µM worked out at 15%. In addition, the viability at 72 h, 10 µM in series [2] came to 100%.
Consider `N#Cc1cc(COc2cccc(C(=O)/C=C(\O)C(=O)O)c2)c(Cl)cc1Cl`, for which the inhibition entry in the series on Hepacivirus hominis [12] is “Active”.
In the case of `O=C(O)c1cn(CCO)c2ccc(-c3cccs3)cc2c1=O`, the inhibition at 10 µM with Hepatitis C virus [1] was 40%. For the same molecule, the viability at 72 h, 10 µM in [2] stood at 100%. Moreover, the EC50 with Hepatitis C virus [3] amounted to 36 µM. For the same molecule, in series [4], the CC50 at 72 h is more than 50 µM. For the same molecule, the selectivity ratio in [5] is more than 1.4. Also, the inhibition entry with Hepacivirus hominis [6] and in the series with Hepacivirus hominis [7] was “Active” throughout.
Consider `O=C(O)c1cn(CCO)c2cc(-c3cccs3)ccc2c1=O`, for which the inhibition at 10 µM in the series on Hepatitis C virus [1] is 14%. For the same molecule, the viability at 72 h, 10 µM in [2] turned out to be 100%.
